Results taken from the NIST ThermoML archive (doi:10.1016/j.fluid.2017.03.015).
± gives the expanded uncertainty stated by the source.

Conditions: Crystal; visual observation

| SMILES | Normal melting temperature [°C] |
| --- | --- |
| C[n+]1ccn(CCO)c1.[Cl-] [1-(2-hydroxyethyl)-3-methyl-1H-imidazolium chloride] | 85.73 ± 0.41 |
| CCCC[N+]1(C)CCCC1.[Cl-] [1-butyl-1-methylpyrrolidinium chloride] | 199.83 ± 0.41 |
| CCn1cc[n+](C)c1.[Cl-] [1-ethyl-3-methylimidazolium chloride] | 77.27 ± 0.41 |
| CCCCCCCCC(C[N+](C)(C)Cc1ccccc1)C(C)O.[Cl-] (stereo not given) [benzyldimethyl-2-(1-hydroxyethyl)decylammonium chloride] | 78.27 ± 0.41 |
| CC(=O)[O-].C[N+](C)(C)CCO [choline acetate] | 89.47 ± 0.41 |
| C[N+](C)(C)CCO.O=S(=O)([N-]S(=O)(=O)C(F)(F)F)C(F)(F)F [choline bis(trifluoromethylsulfonyl)imide] | 32.50 ± 0.41 |
| CCCC(=O)[O-].C[N+](C)(C)CCO [choline butanoate] | 42.83 ± 0.41 |
| CCC(=O)[O-].C[N+](C)(C)CCO [cholinium propanoate] | 9.42 ± 0.41 |
| CCCC[N+](CCCC)(CCCC)CCCC.[Cl-] [tetrabutylammonium chloride] | 69.67 ± 0.41 |
| CCCC[P+](CCCC)(CCCC)CCCC.[Cl-] [tetrabutylphosphonium chloride] | 66.31 ± 0.41 |
